Source: US9783796B2, “Amidase, gene for the same, vector, transformant, and method for production of optically active carboxylic acid amide and optically active carboxylic acid by using any one of those items” (KANEKA CORPORATION, priority 2007, dated 2017)
Entries after “also recorded” stand apart in the source; their conditions may differ. Where two headings read alike, the source gives them in different places.

Assays:
purified enzyme (HCS) = assay: Selective hydrolysis of racemic carboxylic acid amides with the purified enzyme solution (Examples 8 to 10); format: biochemical, Cupriavidus sp. KNK-J915; conditions: 100 mM phosphate buffer pH 7.0, 30° C.; for optical purity: product acid, 1% racemic substrate; for conversion ratio: 1% substrate
Experimental: To 100 mM phosphate buffer (pH 7.0) were added 1% racemic pipecolic acid amide and the purified enzyme solution obtained in Example 1, and allowed to react at 30° C. Then high speed liquid chromatography analysis was conducted to determine the conversion ratio (%) and optical purity (% e.e.). […] Conversion ratio (%)=P/(S1+P)×100
(§1) (P: amount of product (mol), S1: amount of residual substrate (mol)) Optical purity (% e.e.)=(A−B)/(A+B)×100
(§2) (A represents the amount of the target enantiomer, and B represents the amount of the corresponding enantiomer.)
To 100 mM phosphate buffer solution (pH 7.0) were added 1% racemic indoline carboxylic acid amide and the purified enzyme solution obtained in Example 1. The obtained mixture was allowed to react at 30° C., and then the substrate and product in the reaction liquid were converted into derivatives with acetic anhydride. The conversion ratio (%) and optical purity (% e.e.) were determined by high speed liquid chromatography analysis of the obtained derivatives.
To 100 mM phosphate buffer (pH 7.0) were added 1% racemic phenyl propionic acid amide and the purified enzyme solution obtained in Example 1, and allowed to react at 30° C. The conversion ratio (%) and optical purity (% e.e.) were determined by high speed liquid chromatography analysis.

E. coli HB101 (pNCS) = assay: Selective hydrolysis of S-enantiomer in racemic nipecotamide with culture solution of E. coli HB101 (pNCS); format: biochemical, Escherichia coli; conditions: pH 8.0, 25 hours, 45° C.; for optical purity: from racemic nipecotamide
Experimental: An amount of 10.1 g of racemic nipecotamide was dissolved in water to prepare a substrate solution having a pH adjusted to 8.0. To 200 ml of the prepared substrate solution was added 2 ml of a culture solution obtained by culturing E. coli HB101 (pNCS) as in Example 6, and stirred for 25 hours at 45° C. After completion of the reaction, the reaction liquid was heated for 30 minutes at 70° C., and centrifuged to remove solid matters including cells. Subsequently, the substrate and the product in the reaction liquid were converted into derivatives with benzyl chloroformate. The obtained derivatives were analyzed by high speed liquid chromatography to determine the conversion ratio (%) and optical purity (% e.e.). […] Conversion ratio (%)=P/(S1+P)×100
as §1, §2
High Speed Liquid Chromatography Analysis Condition
[Analysis of Conversion Ratio]
(§3) Column: YMC-A303 (4.6 mmφ×250 mm, product of YMC Co., Ltd.)
Eluant: 20 mM phosphate aqueous solution (pH 2.5)/acetonitrile=7/3
Column temperature: 35° C.
(§4) Measurement wavelength: 210 nm
[Optical Purity Analysis]
Column: CHIRALPAK AD-RH (4.6 mmφ×150 mm, product of DAICEL CHEMICAL INDUSTRIES, LTD.)
Column temperature: room temperature

HCS = assay: Substrate specificity of HCS; format: biochemical, Cupriavidus sp. KNK-J915; conditions: for Relative activity (%): activity on (R,S)-nipecotamide set to 100, 1% substrate, 30° C., 100 mM phosphate buffer pH 7.0
Experimental: Next, the substrate specificity of HCS was analyzed. The substrate compound was added in a form of a 1% solution. The enzyme reaction was allowed to proceed at 30° C. in 100 mM phosphate buffer (pH 7.0). The resultant solution was analyzed under the high speed liquid chromatography analysis conditions A described in Example 1 or the high speed liquid chromatography analysis conditions B shown below.
High Speed Liquid Chromatography Analysis Condition B
Column: SUMICHIRAL OA-5000 (4.6 mmφ×150 mm, product of Sumika Chemical Analysis Service, Ltd.)
Eluant: 2 mM CuSO4 aqueous solution
(§5) Column temperature: 30° C.
Measurement wavelength: 254 nm

[1] = test system: putative amidase derived from Ralstonia eutropha JMP134 strain; assay: Selective hydrolysis of S-enantiomer in racemic N-benzylnipecotamide with culture solution of E. coli HB101 (pNRE); format: biochemical
Text: Primer 7 (SEQ ID NO:10 in the sequence listing) having the NdeI site added to the initiation codon site, and primer 8 (SEQ ID NO:11 in the sequence listing) having an SacI site immediately downstream of the termination codon were synthesized based on the base sequence (SEQ ID NO:9 in the sequence listing) encoding the putative amidase derived from Ralstonia eutropha JMP134 strain, which has high sequence identity to the base sequence of the present invention derived from Cupriavidus sp. KNK-J915 (FERM BP-10739) determined in Example 3. An amount of 50 μl of a buffer for ExTaq was prepared. This buffer contained the two primers (primer 7 and primer 8, each 50 pmol), chromosomal DNA derived from Ralstonia eutropha JMP134 strain (10 ng), dNTP (each 10 nmol) and ExTaq (2.5 U, product of TAKARA SHUZO Co., Ltd.). Heat denaturation (97° C., 1 minute), annealing (60° C., 1 minute), and an extension reaction (72° C., 1.5 minutes) were repeated for 30 cycles. The reaction fluid was cooled to 4° C. and subjected to agarose gel electrophoresis to confirm amplification of the DNA. […]
To 100 mM phosphate buffer (pH 7.0) were added 1% racemic N-benzylnipecotamide and the culture solution of E. coli HB101 (pNRE) obtained in Example 11, and allowed to react at 30° C. Thereafter, the conversion ratio (%) and optical purity (% e.e.) were determined by high speed liquid chromatography analysis. […]

[2] = Amidase activity of purified enzyme (production of N-benzylnipecotic acid, HPLC); format: biochemical; conditions: 1% N-benzylnipecotamide, 100 mM phosphate buffer pH 7.0, 1 hour, 30° C.
Experimental: In the following examples, the amidase activity was determined by the following procedure. To 100 mM phosphate buffer (pH 7.0) were added 1% N-benzylnipecotamide and an enzyme solution, and allowed to react for 1 hour at 30° C. Then, the solution was analyzed under high speed liquid chromatography analysis conditions A. Enzyme activity which produces 1 μmol of N-benzylnipecotic acid per 1 minute under these conditions was defined as 1 unit.
High Speed Liquid Chromatography Analysis Condition A
as §3
Eluant: 20 mM phosphate aqueous solution (pH 2.5)/acetonitrile=9/1
as §5, §4

[3] = Optimum pH, optimum temperature and thermal stability of the amidase reaction of purified HCS; format: biochemical; conditions: stable at or below this temperature
Experimental: The Optimum pH and optimum temperature of an amidase reaction of the purified enzyme obtained in Example 1, and thermal stability of the enzyme were determined by quantifying N-benzylnipecotic acid produced in the hydrolysis reaction using N-benzylnipecotamide as a substrate, by HPLC. For determination of the optimum pH, the reaction was allowed to proceed at each pH for 1 hour at 30° C., and stopped by addition of acetonitrile. The resultant solution was analyzed under the high speed liquid chromatography analysis conditions A described in Example 1. For determination of the optimum temperature, the reaction was allowed to proceed at each temperature for 1 hour, and stopped by addition of acetonitrile. The resultant solution was analyzed under the high speed liquid chromatography analysis conditions A described in Example 1. For determining the thermal stability, after incubation at each temperature for 30 minutes, the reaction was allowed to proceed for 1 hour, and stopped by addition of acetonitrile. The resultant solution was analyzed under the high speed liquid chromatography analysis conditions A described in Example 1.

| Molecule | amidase activity of HCS on the substrate (in words) (HCS) | Relative activity (%) (HCS) | further results |
| --- | --- | --- | --- |
| O=C(O)[C@H]1Cc2ccccc2N1 [(R)-indoline carboxylic acid] | – | – | optical purity (purified enzyme (HCS)): 97.8 % e.e. |
| O=C(O)[C@H]1CCCNC1 [(S)-nipecotic acid] | – | – | optical purity (E. coli HB101 (pNCS)): 97.1 % e.e. |
| NC(=O)C1CCCCN1 (racemic) [(R,S)-pipecolic acid amide] | particularly strong amidase activity; also recorded: especially strong activity | 34% | conversion ratio (purified enzyme (HCS)): 18.3% |
| CCC(N)=O [propionic acid amide] | particularly strong amidase activity; also recorded: especially strong activity | 59% | – |
| C[C@H](C(=O)O)c1ccccc1 [(S)-phenyl propionic acid] | – | – | optical purity (purified enzyme (HCS)): 89.1 % e.e. |
| CC(C)C(N)=O [isobutylamide] | particularly strong amidase activity; also recorded: especially strong activity | 230% | – |
| CC(C)CC(N)C(N)=O (racemic) [D,L-leucine amide] | – | 0% | – |
| NC(=O)C(O)c1ccccc1 (racemic) [(R,S)-mandelic acid amide] | particularly strong amidase activity; also recorded: especially strong activity | 49% | – |
| NC(=O)c1ccccc1 [benzamide] | weak amidase activity | 5.4% | – |
| NC(=O)C(N)Cc1ccccc1 (racemic) [D,L-phenylalanine amide] | weak amidase activity | 3.4% | – |
| NC(=O)C1CCCN1 (racemic) [D,L-proline amide] | – | 0% | – |
| CC(C(N)=O)c1ccccc1 (racemic) [(R,S)-phenyl propionic acid amide] | – | 309% | conversion ratio (purified enzyme (HCS)): 36.0%; amidase activity of HCS on the substrate (in words) (HCS; listed as phenyl propionic acid amide): particularly strong amidase activity; amidase activity of HCS on the substrate (in words) (HCS; listed as phenylpropionic acid amide): especially strong activity |
| O=C(NCc1ccccc1)[C@@H]1CCCNC1 [(R)—N-benzylnipecotamide] | – | – | optical purity ([1]; residual amide, pH 7.0, 30° C.): 99.4 % e.e. |
| O=C(NCc1ccccc1)C1CCCNC1 (racemic) [(R,S)-N-benzylnipecotamide] | particularly strong amidase activity; also recorded: especially strong activity | 49% | conversion ratio ([1]; 1% substrate, 100 mM phosphate buffer pH 7.0, 30° C.): 50.1% |
| CC(N)C(N)=O (racemic) [D,L-alanine amide] | – | 0% | – |
| NC(=O)CC(N)c1ccccc1 (racemic) [D,L-β-phenylalanine amide] | – | 0% | – |
| O=C(O)[C@H]1CCCCN1 [(R)-pipecolic acid] | – | – | optical purity (purified enzyme (HCS)): 80.1 % e.e. |
| NC(=O)[C@@H]1CCCNC1 [(R)-nipecotamide] | – | – | optical purity (E. coli HB101 (pNCS)): 98.3 % e.e. |
| NC(=O)C1Cc2ccccc2N1 (centres unmarked) | particularly strong amidase activity; also recorded: especially strong activity | 64% | conversion ratio (purified enzyme (HCS)): 39.2% |
| NC(=O)C1CCCNC1 (racemic) [(R,S)-nipecotamide] | particularly strong amidase activity; also recorded: especially strong activity | 100% | conversion ratio (E. coli HB101 (pNCS)): 50.2% |
| HCS: amidase purified from Cupriavidus sp. KNK-J915 strain (FERM BP-10739), amino acid sequence SEQ ID NO:1 (protein, listed as Cupriavidus sp.) MPTDIQTLQTRLHDGAVSRADVIAQAAQHAQQPDAHAVFLHTTFDTAAQVAKAADAACLAGKPLHPLAGLPVSVKDLFNIAGEASRAGSPVRSDALAATADATVVRRLRESGAALVGRTNMTEFAFSGVGINPHFGTPVNPADKQVARIPGGSSSGAAVSVALGLAVAGLGSDTGGSIRIPAALCGLTGFKPTARRVPLDGAFPLSYTLDTACAMARTVQDCVLVDSVIADQAVLPVIKGAAGIRLAIPRQVLLDDLDDTVARAFDRALGRLSAAGVQIEHIDLPELAELATINASGGFTAAEAHAIHRHVLATRREQYDPRVASRIDRGAAMSAADYVDLMRARLDWITRVAARLEGFDAVACPTVPMVAPPIAPLVADDALFFHTNALLLRNTSAFNFLDGCSISLPCHQPDELPVGLMLSHGALRDAQLLGTAIALESIVKPAA | – | – | specific activity of the purified enzyme [2]: 1.7 U/mg-protein; Thermal stability: temperature at which stable [3]: ≤ 50 °C |
